Where a name gives a salt, the structure may show the parent alone. Read-outs that look alike come from different tables or passages of the source.
Experiments:
Assay type in all cases: cell-based
E. coli J2175 = test: MIC, agar dilution; conditions: Escherichia coli, 18 h, read-out: MIC
E. coli ATCC 25922 = test: MIC, agar dilution; conditions: Escherichia coli, ATCC25922, 18 h
E. coli J3272 Tet C = test: microbe, parasite or virus in culture; conditions: Escherichia coli, J3272TETC, 18 h
E. coli #311 (MP) = test: MIC, agar dilution; conditions: Escherichia coli, 18 h
[1] = system: S. aureus UBMS 90-1 Tet M; test: microbe, parasite or virus in culture; conditions: Staphylococcus aureus, UBMS901TETM, 18 h
S. aureus ROSE (MP) = test: MIC, agar dilution; conditions: Staphylococcus aureus, 18 h
[2] = system: S. aureus UBMS 90-2 Tet M; test: microbe, parasite or virus in culture; conditions: Staphylococcus aureus, UBMS902TETM, 18 h
[3] = system: S. aureus UBMS 88-5 Tet M; test: microbe, parasite or virus in culture; conditions: Staphylococcus aureus, UBMS885TETM, 18 h
S. aureus ATCC 29213 = test: MIC, agar dilution; conditions: Staphylococcus aureus, ATCC29213, 18 h, S. aureus ATCC 29213
Enterococcus 12201 = test: MIC, agar dilution; conditions: Enterococcus, 12201, 18 h
[4] = system: Ps. aeruginosa ATCC 27853; test: MIC, agar dilution; conditions: Pseudomonas aeruginosa, ATCC27853, 18 h
S. aureus IVES 1983 = test: MIC, agar dilution; conditions: Staphylococcus aureus, IVES1983, 18 h
E. coli J3272 Tet D = test: microbe, parasite or virus in culture; conditions: Escherichia coli, J3272TETD, 18 h
E. coli UBMS 90-4 Tet M = test: microbe, parasite or virus in culture; conditions: Escherichia coli, UBMS904TETM, 18 h
E. coli UBMS 88-1 Tet B = test: microbe, parasite or virus in culture; conditions: Escherichia coli, UBMS881TETB, 18 h
S. aureus UBMS 90-3 = test: MIC, agar dilution; conditions: Staphylococcus aureus, UBMS903, 18 h
[5] = system: S. hemolyticus AVHAH 88-3; test: MIC, agar dilution; conditions: Streptococcus pyogenes, AVHAH883, 18 h
S. aureus IVES 2943 = test: MIC, agar dilution; conditions: Staphylococcus aureus, IVES2943, 18 h
S. aureus NEMC 8769 = test: MIC, agar dilution; conditions: Staphylococcus aureus, NEMC8769, 18 h
E. coli UBMS 89-1 Tet M = test: microbe, parasite or virus in culture; conditions: Escherichia coli, UBMS891TETM, 18 h
[6] = system: X. maltophilia NEMC 87210; test: MIC, agar dilution; conditions: Stenotrophomonas maltophilia, NEMC87210, 18 h
E. coli PRP1 Tet A = test: microbe, parasite or virus in culture; conditions: Escherichia coli, PRP1TETA, 18 h
E. faecalis ATCC 29212 = test: MIC, agar dilution; conditions: Enterococcus faecalis, ATCC29212, 18 h
E. coli BAJ9003 IMP MUT = test: microbe, parasite or virus in culture; conditions: Escherichia coli, BAJ9003IMPMUT, 18 h
[7] = system: E. coli UBMS 89-2 Tet sens.; test: MIC, agar dilution; conditions: Escherichia coli, 18 h; E. coli UBMS 89-2 Tet sens.; read-out: MIC
E. coli UBMS 90-5 = test: microbe, parasite or virus in culture; conditions: Escherichia coli, UBMS905, 18 h
S. aureus UBMS 88-4 = test: MIC, agar dilution; conditions: Staphylococcus aureus, UBMS884, 18 h
S. marcescens FPOR 8733 = test: MIC, agar dilution; conditions: Serratia marcescens, FPOR8733, 18 h
S. aureus SMITH (MP) = test: MIC, agar dilution; conditions: Staphylococcus aureus, 18 h
[8] = system: S. aureus UBMS 88-7 Tet K; test: microbe, parasite or virus in culture; conditions: Staphylococcus aureus, UBMS887TETK, 18 h
[9] = system: E. coli MC 4100 Tet sens.; test: MIC, agar dilution; conditions: Escherichia coli, 18 h
[10] = system: E. coli MC 4100 TNIOC Tet B; test: microbe, parasite or virus in culture; conditions: Escherichia coli, 18 h
[11] = E. coli #311 (MP), read-out: MIC
[12] = Ps. aeruginosa ATCC 27853, read-out: MIC
[13] = S. aureus IVES 1983, read-out: MIC
[14] = E. coli UBMS 90-5, read-out: MIC

Row | SMILES | MIC (E. coli J2175) | MIC (E. coli J3272 Tet C) | MIC (E. coli #311 (MP); [11]) | MIC [1] | MIC [2] | MIC [3] | MIC (S. aureus ATCC 29213) | MIC [4, 12] | MIC (E. coli J3272 Tet D) | MIC (E. coli UBMS 90-4 Tet M) | MIC (E. coli UBMS 88-1 Tet B) | MIC [5] | MIC (S. aureus IVES 2943) | MIC (S. aureus NEMC 8769) | MIC (E. coli UBMS 89-1 Tet M) | MIC [6] | MIC (E. coli PRP1 Tet A) | MIC (E. coli BAJ9003 IMP MUT) | MIC (E. coli UBMS 90-5; [14]) | MIC [8] | other results
1 | CNCC(=O)Nc1ccc2c(c1O)C(=O)C1=C(O)[C@]3(O)C(=O)C(C(N)=O)=C(O)[C@@H](N(C)C)C3CC1C2 (stereo partly drawn) [F, [4S-(4alpha,12aalpha)]-4-(Dimethylamino)-1,4,4a,5,5a,6,11,12a-octahydro-3,10,12,12a-tetrahydroxy-9-[[(methylamino)acetyl]amino]-1,11-dioxo-2-naphthacenecarboxamide dihydrochloride] | 0.5 µg/mL | 4 µg/mL | 0.5 µg/mL | 0.5 µg/mL | 0.5 µg/mL | 1 µg/mL | 0.5 µg/mL | 32 µg/mL | 0.5 µg/mL | 0.5 µg/mL | 1 µg/mL | 1 µg/mL | > 32 µg/mL | 0.25 µg/mL | 0.5 µg/mL | 16 µg/mL | 4 µg/mL | 0.5 µg/mL | 0.5 µg/mL | 16 µg/mL | MIC (E. coli ATCC 25922; read-out: MIC): 0.5 µg/mL; MIC (S. aureus ROSE (MP)): > 32 µg/mL; MIC (Enterococcus 12201): 0.5 µg/mL; MIC (S. aureus IVES 1983; [13]): 16 µg/mL; MIC (S. aureus UBMS 90-3): 0.5 µg/mL; MIC (E. faecalis ATCC 29212): 0.5 µg/mL; MIC [7]: 1 µg/mL; MIC (S. aureus UBMS 88-4): 0.5 µg/mL; MIC (S. marcescens FPOR 8733): 4 µg/mL; MIC (S. aureus SMITH (MP)): 0.5 µg/mL
2 | CN(C)[C@@H]1C(O)=C(C(N)=O)C(=O)[C@@]2(O)C(O)=C3C(=O)c4c(ccc(NC(=O)CNCc5ccccc5)c4O)CC3CC12 (stereo partly drawn) [J, [4S-(4alpha,12aalpha)]-4-(Dimethylamino)-1,4,4a,5,5a,6,11,12a-octahydro-3,10,12,12a-tetrahydroxy-1,11-dioxo-9-[[[(phenylmethyl)amino]acetyl]amino]-2-naphthacenecarboxamide dihydrochloride] | 4 µg/mL | 4 µg/mL | 4 µg/mL | 4 µg/mL | 1 µg/mL | 2 µg/mL | 1 µg/mL |  | 4 µg/mL | 4 µg/mL | 4 µg/mL |  |  | 1 µg/mL | 2 µg/mL | 16 µg/mL | 4 µg/mL | 0.5 µg/mL | 4 µg/mL | 4 µg/mL | MIC (E. coli ATCC 25922; read-out: MIC): 4 µg/mL; MIC [9]: 0.5 µg/mL; MIC (S. aureus ROSE (MP); read-out: MIC): 8 µg/mL; MIC (Enterococcus 12201): 2 µg/mL; MIC [4]: > 32 µg/mL; MIC (S. aureus IVES 1983; [13]): 4 µg/mL; MIC (S. aureus UBMS 90-3): 0.5 µg/mL; MIC ([5]; S. hemolyticus AVHAH 88-3, read-out: MIC): 4 µg/mL; MIC (S. aureus IVES 2943; S. aureus IVES 2943, read-out: MIC): 4 µg/mL; MIC (E. faecalis ATCC 29212): 0.25 µg/mL; MIC (S. aureus UBMS 88-4): 1 µg/mL; MIC (S. marcescens FPOR 8733; read-out: MIC): > 32 µg/mL; MIC (S. aureus SMITH (MP)): 0.5 µg/mL
3 | CCCCCNCC(=O)Nc1ccc2c(c1O)C(=O)C1=C(O)[C@]3(O)C(=O)C(C(N)=O)=C(O)[C@@H](N(C)C)C3CC1C2 (stereo partly drawn) [K, [4S-(4alpha,12aalpha)]-4-(Dimethylamino)-1,4,4a,5,5a,6,11,12a-octahydro-3,10,12,12a-tetrahydroxy-1,11-dioxo-9-[[(pentylamino)acetyl]amino]-2-naphthacenecarboxamide monohydrochloride] | 0.5 µg/mL | 0.5 µg/mL |  |  |  |  |  | 32 µg/mL | 0.5 µg/mL |  | 1 µg/mL | 2 µg/mL | 2 µg/mL | 0.12 µg/mL |  | 1 µg/mL | 0.5 µg/mL |  |  | 2 µg/mL | MIC (E. coli ATCC 25922): 0.5 µg/mL; MIC (E. coli #311 (MP)): 0.5 µg/mL; MIC ([1]; S. aureus UBMS 90-1 Tet M): 0.5 µg/mL; MIC [9]: 0.5 µg/mL; MIC (S. aureus ROSE (MP); read-out: MIC): 8 µg/mL; MIC [10]: 0.5 µg/mL; MIC ([3]; S. aureus UBMS 88-5 Tet M): 0.5 µg/mL; MIC (S. aureus ATCC 29213; read-out: MIC): 0.5 µg/mL; MIC (S. aureus IVES 1983): 2 µg/mL; MIC (E. coli UBMS 90-4 Tet M; E. coli UBMS 90-4 Tet M): 0.5 µg/mL; MIC (E. coli UBMS 90-5): 0.5 µg/mL; MIC (S. marcescens FPOR 8733; read-out: MIC): 4 µg/mL
4 | CN(C)[C@@H]1C(O)=C(C(N)=O)C(=O)[C@@]2(O)C(O)=C3C(=O)c4c(ccc(NC(=O)CNCc5cccs5)c4O)CC3CC12 (stereo partly drawn) [L, [4S-(4-alpha,12aalpha)]-4-(Dimethylamino)-1,4,4a,5,5a,6,11,12a-octahydro-3,10,12,12a-tetrahydroxy-1,11-dioxo-9-[[[(2-thienylmethyl)amino]acetyl]amino]-2-naphthacenecarboxamide dihydrochloride] | 16 µg/mL | 32 µg/mL | 16 µg/mL | 8 µg/mL | 8 µg/mL | 8 µg/mL | 8 µg/mL | > 32 µg/mL | 16 µg/mL | 8 µg/mL | 32 µg/mL | 8 µg/mL | 16 µg/mL | 8 µg/mL | 8 µg/mL | > 32 µg/mL | 16 µg/mL | 4 µg/mL | 16 µg/mL | 16 µg/mL | MIC (E. coli ATCC 25922): 8 µg/mL; MIC [9]: 8 µg/mL; MIC (S. aureus ROSE (MP)): 32 µg/mL; MIC [10]: 32 µg/mL; MIC (Enterococcus 12201; Enterococcus 12201, read-out: MIC): 8 µg/mL; MIC (S. aureus IVES 1983): 16 µg/mL; MIC (S. aureus UBMS 90-3; S. aureus UBMS 90-3): 4 µg/mL; MIC (S. aureus UBMS 88-4): 8 µg/mL; MIC (S. marcescens FPOR 8733): > 32 µg/mL; MIC (S. aureus SMITH (MP); S. aureus SMITH (MP)): 4 µg/mL

Reference: patent US5567692A, “9-[(substituted glycyl) amido)]-6-demethyl-6-deoxytetracyclines” (priority 1995, dated 1996)
